Patent US20030212100A1, “Quinoline derivatives and medicinal use thereof” (priority 2000, published 2003)

Assays:
human PPARα receptor = biological target: T1, human PPARα receptor (Homo sapiens, UniProt Q07869); experiment: Luciferase reporter assay of PPARα agonist activity (Gal4-PPARα chimera receptor in CV-1 cells); format: cell-based; conditions: luciferase activity with 10 μM Wy-14,643 taken as 100, read-out: PPARα agonist activity, relative activity; for Emax at 0.1 µM: CV-1, 0.1 μM compound; for Emax at 1 µM: CV-1, 1 μM compound; for Emax at 10 µM: CV-1, 10 μM compound
T1 construct: expressed in transfected cells; host or cells: CV-1 cells (pSG5-based expression vector)
T1 sequence (Q07869 167-468): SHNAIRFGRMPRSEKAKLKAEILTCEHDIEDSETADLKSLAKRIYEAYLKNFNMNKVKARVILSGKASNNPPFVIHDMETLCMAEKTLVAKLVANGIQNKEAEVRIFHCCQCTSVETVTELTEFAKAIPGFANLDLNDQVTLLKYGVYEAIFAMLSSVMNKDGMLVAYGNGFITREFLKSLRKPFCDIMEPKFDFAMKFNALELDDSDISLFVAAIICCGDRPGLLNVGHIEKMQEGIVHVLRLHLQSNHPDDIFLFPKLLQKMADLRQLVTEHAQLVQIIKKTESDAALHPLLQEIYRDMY
Method: (§1) Measurement of PPARα Agonist Activity and PPARγ Agonist Activity
(§2) 1. Materials for Assay of Luciferase Using Human PPARα and PPARγ Receptors
(§3) The entire procedure was carried out according to the fundamental methods of genetic engineering and the ordinary method in the yeast one-hybrid or two-hybrid system was applied.
(§4) PGL2-UAS5-TK-luc was prepared as a reporter plasmid carrying a response sequence of Gal4 protein as a basic transcription factor of yeast, an enhancer sequence with five repeat part of UAS, a luciferase gene (luc) under the control of timidine kinase (TK) promoter. Specifically, a DNA fragment encoding a TK promoter (−105/+51) on the downstream side of an enhancer sequence comprising two time repeat of UAS was amplified by PCR using pRL-TK carrying a TK promoter (Promega, Trade name: Catalogue No. E2241) as the template and the primers: […]
(§5) After the fragment was cleaved with XhoI-Hind III, pGL2-UAS2-TK-luc was obtained by inserting the resultant fragment into the XhoI-Hind III site located on the upstream side of a luciferase structural gene on pGL2-Basic vector (Promega, Trade name: Catalogue No. E1641).
(§6) After cleavage of a synthetic DNA as an enhancer sequence comprising three time repeat of Gal4 response sequence (SEQ ID NO: 3): 5′-ATTGGTAC([…])×3 AGATCTCGAC) using KpnI and BgIII was carried out, pGL2-UAS5-TK-luc was prepared by inserting the resulting fragment into the KpnI-BgIIIb site of pGL2-UAS2-TK-luc.
(§7) A vector for expression of a chimera receptor protein, in which a ligand binding region of an internuclear receptor human PPARα or PPARγ receptor was fused with the carboxyl terminal of a DNA binding region of yeast Ga14 protein, was prepared as follows:
(§8) The structural gene of pSG5 (STRATAGENE, Trade Name: Catalogue No. 216201) as the basic expression vector was changed for the chimera receptor except that the promoter-enhancer region was maintained as it was.
(§9) The DNA encoding the ligand binding region of the human PPARα or PPARγ receptor was fused on the downstream side of the DNA encoding the DNA binding region and the amino acid sequence from 1 to 147 positions of Ga14 protein so that their reading frames were fitted and the resulting fused DNA was inserted into pSG5 (trade name) on the down stream side of the promoter-enhancer region. In this step, the DNA sequence was arranged so that a signal for transfer into the nucleus (Ala Pro Lys Lys Lys Arg Lys Val Gly (SEQ ID: No: 4) derived from SV-40T antigen was located on the amino terminal of the ligand binding region of PPARα or PPARγ receptor in order to localize the chimera receptor in the nucleus.
(§10) Based on comparison of the human PPAR receptors described in R. Mukherjee et al., [see J. Steroid Biochem. Molec. Biol., Vol. 51, p157 (1994)] and M. E. Green et al., [see Gene Expression, Vol. 4, p281 (1995))], as the structural gene part used for the ligand binding region PPARα or PPARγ, the human PPARα ligand binding region: Ser167-Tyr468; and the PPARγ ligand binding region: Ser176-Tyr478 were used, which had the same sequences corresponding to Ser204-Tyr506 for human PPARγ1 receptor and human PPARγ2, respectively.
(§11) In order to monitor influence against the basic transcription, an expression vector was prepared which carried a DNA encoding only the DNA binding region and the amino acid sequence from 1 to 147 position of Ga14 protein defective in its PPAR ligand binding region and a signal for transfer into the nucleus of SV-40T-antigen.
(§12) 2. Assay of Luciferase Using Human PPARα or PPARγ Receptor
(§13) CV-1 cells used as a host cell were cultivated according to an ordinary method. Specifically, a fetal bovine serum (Intergent, Catalogue No. 1020-90) was added to a Dulbecco's modified Eagle's medium (DMEM) so that the final concentration became 10%. Further, penicillin G (50 U/ml) and streptomycin sulfate (50 μg/ml) were added. Cultivation was conducted in the resulting medium in a 5% carbon dioxide gas at 37° C. […]

human PPARγ receptor = biological target: T2, human PPARγ receptor (Homo sapiens, UniProt P37231); experiment: Luciferase reporter assay of PPARγ agonist activity (Gal4-PPARγ chimera receptor in CV-1 cells); format: cell-based; conditions: luciferase activity with 1 μM Pioglitazone taken as 100, read-out: PPAR γ agonist activity, relative activity; for Emax at 0.1 µM: CV-1, 0.1 μM compound; for Emax at 1 µM: CV-1, 1 μM compound; for Emax at 10 µM: CV-1, 10 μM compound
T2 construct: corresponding to Ser204-Tyr506 for human PPARγ1 receptor and human PPARγ2; expressed in transfected cells; host or cells: CV-1 cells (pSG5-based expression vector)
T2 sequence (P37231 204-505 limits assumed): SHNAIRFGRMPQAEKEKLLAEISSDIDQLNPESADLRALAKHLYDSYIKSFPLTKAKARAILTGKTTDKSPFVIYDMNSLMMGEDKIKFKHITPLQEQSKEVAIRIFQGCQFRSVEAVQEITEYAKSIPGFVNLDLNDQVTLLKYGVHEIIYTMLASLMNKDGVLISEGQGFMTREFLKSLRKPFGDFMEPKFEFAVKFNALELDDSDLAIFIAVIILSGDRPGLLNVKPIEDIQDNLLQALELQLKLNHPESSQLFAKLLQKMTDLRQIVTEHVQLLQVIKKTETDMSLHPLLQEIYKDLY
Method: as §1, §2, §3, §4, §5, §6, §7, §8, §9, §10, §11, §12, §13

[1] = test system: TNFα transcription (human TNF transcription-controlling region); experiment: Inhibition of TNFα production: luciferase under human TNF transcription-controlling region in 3T3-L1 cell strain No. 46; format: cell-based; conditions: 10 μM compound; luciferase activity with DMSO taken as 100 (no hTNF: 40%); 24 hours
Text: Test for in-vitro Evaluation of the Action of Inhibiting the Production of Tumor Necrosis Factor α (TNFα) Using Lipocytes (Derived from 3T3-L1)
A luciferase gene was bonded to the downstream side of human TNF transcription-controlling region. The resulting material was stably inserted into the chromosomes of 3T3-L1 cells. The thus-obtained cell strain No. 46 was used for evaluation.
The cell strain No. 46 was cultivated according to an ordinary method. Specifically, a bovine serum (Cell Culture Technology, Catalogue No. CC017-502) was added to a Dulbecco's modified Eagle's medium (DMEM) so that the final concentration became 10%. Further, 50 U/ml of penicillin G, 50 ug/ml of streptomycin sulfate and 0.4 mg/ml of G418 were added. In the resulting medium was conducted cultivation in a 5% carbon dioxide gas at 37° C.
The cell strain No. 46 was planted into a PLL (poly L-lysine)-coated 48-well plate. When the cell strain reached confluence and then at least two days passed, the medium was substituted with the above medium containing 9 ng/m of hTNF (Genzyme) and an activity for TNFα transcription was induced. hTNF was added and, simultaneously therewith, a compound of the present invention was added so that the final concentration became 10 μM. 24 hours later, the cells were observed by a microscope. Then, the cells were fused and the luciferase activity was measured according to an ordinary method.
Regarding the activity for TNFα transcription, the luciferase activity when DMSO was added in place of the compound, was taken as 100; and the relative activity when 10 uM of the present compound was added, was shown in Table 1. Incidentally, the relative luciferase activity when no hTNF was added, was 40%.

[2] = test system: KK-Ay/Ta Jci type 2 diabetes mice; experiment: In-vivo blood sugar and lipid reduction in diabetes model mice (KKAy mice); parameters: species or system mouse; conditions: 30 mg/kg orally one time per day for 4 days, 5th day vs 1st day; for Reduction in free fatty acid (%) / Reduction in triglyceride (%): plasma
Method: Test for in-vivo Evaluation of the Activities for Blood Sugar Reduction and Lipid Reduction Using Diabetes Model Mice (KKAy Mice)
Type 2 diabetes mice “KK-Ay/Ta Jci” (male, Clea Japan, Inc., 10-week old) put in cages were used (each cage contained 5 mice). In the morning of the 1st day of test start, a blood was collected from the orbital vein of each mouse. The blood sugar value in the blood was measured by subjecting the blood to deproteinization using perchloric acid, subjecting the resulting material to centrifugation, and subjecting the resulting supernatant liquid to a new blood sugar test (Boehringer Mannheim). Further, the blood was subjected to centrifugation to obtain a plasma and the triglyceride concentration and free fatty acid concentration in the plasma were measured using Triglyceride E-Test Wako and NEFA-C Test Wako (Wako Pure Chemical Industries, Ltd.), respectively. Grouping was made so that the blood sugar values in individual groups became the same. Then, an Example 2 compound (exemplary compound No. 61) was suspended in a 0.5% aqueous CMC solution and administered orally one time per day for 4 days. In the 5th day of test, blood collection was made to measure blood sugar value, triglyceride concentration and free fatty acid concentration. Incidentally, a group to which only the 0.5% aqueous CMC solution was administered, was used as a control group; and Pioglitazone was used in a positive control group. The reduction in parameter in each group was calculated using the following formula.
Reduction (%)={1−(parameter of 5th day in each group)/(parameter of 1st day in each group)}×100

| SMILES | Emax at 0.1 µM (human PPARα receptor) | Emax at 1 µM (human PPARα receptor) | Emax at 10 µM (human PPARα receptor) | Emax at 0.1 µM (human PPARγ receptor) | Emax at 1 µM (human PPARγ receptor) | Emax at 10 µM (human PPARγ receptor) | Activity for TNFα transcription, relative activity [1] | Reduction in blood sugar (%) [2] | Reduction in free fatty acid (%) [2] | Reduction in triglyceride (%) [2] |
| --- | --- | --- | --- | --- | --- | --- | --- | --- | --- | --- |
| CCOC(Cc1ccc(OCc2cnc3ccc(OC)cc3c2OC(C)C)cc1)C(N)=O (centres unmarked) [Example 3 (102), 2-ethoxy-3-{[4-(4-isopropoxy-6-methoxyquinoline-3-yl)methyloxy]phenyl}propanoic acid amide] | 0.4% | 0.9% | 8.5% | 74.1% | 114% | 108% | 71.7 | – | – | – |
| CCCCNC(=O)C(Cc1ccc(OCc2cnc3ccc(OC)cc3c2OC(C)C)cc1)OCC (centres unmarked) [Example 4 (104), 2-ethoxy-3-{[4-(4-isopropoxy-6-methoxyquinoline-3-yl)methyloxy]phenyl}propanoic acid N-butylamide] | 0.3% | 0.3% | 0.3% | 0.4% | 1.1% | 14.9% | 64.0 | – | – | – |
| COc1ccc2ncc(COc3ccc(C=C(C(C)=O)C(C)=O)cc3)c(OC(C)C)c2c1 [Example 26 (147), 3-{[4-(4-isopropoxy-6-methoxyquinoline-3-yl)methyloxy]phenylmethylene}-2,4-dioxopentane] | – | – | – | 0.1% | 3.7% | 12.8% | 59.0 | – | – | – |
| CNC(=O)C(Cc1ccc(OCc2cnc3ccc(OC)cc3c2OC(C)C)cc1)C(C)=O (centres unmarked) [Example 24 (141), 2-{[4-(4-isopropoxy-6-methoxyquinoline-3-yl)methyloxy]phenylmethyl}-3-oxobutanoic acid N-methylamide] | – | – | – | 0.8% | 1.2% | 9.4% | 71.6 | – | – | – |
| CCOC(Cc1ccc(OCc2cnc3ccc(OC)cc3c2OC(C)C)cc1)C(=O)O (centres unmarked) [Example 2 (61), 2-ethoxy-3-{[4-(4-isopropoxy-6-methoxyquinoline-3-yl)methyloxy]phenyl}propanoic acid] | – | 10.4% | 24.6% | 85% | 114% | – | – | 50% | 46% | 57% |
| CCc1ccc(CCOc2ccc(CC3SC(=O)NC3=O)cc2)nc1 (centres unmarked) [Pioglitazone, reference compound] | – | – | – | – | – | – | – | 28% | 49% | 60% |
